pKd: −log10 of the molar value.

In the assay the target is T1, SaGPN (Sulfolobus acidocaldarius, UniProt Q4J9A7).
T1 construct: gene Saci_1281; E. coli BL21(DE3) Rosetta; Y2-A240 built, 14 C-terminal residues disordered
T1 sequence (Q4J9A7 1-254): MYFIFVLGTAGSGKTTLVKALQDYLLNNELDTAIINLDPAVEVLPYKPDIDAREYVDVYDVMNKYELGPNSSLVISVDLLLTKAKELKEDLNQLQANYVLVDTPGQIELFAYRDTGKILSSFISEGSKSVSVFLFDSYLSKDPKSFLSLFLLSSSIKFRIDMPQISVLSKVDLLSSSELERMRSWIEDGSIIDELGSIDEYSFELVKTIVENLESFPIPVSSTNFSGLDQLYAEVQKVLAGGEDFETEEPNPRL
In words: isothermal titration calorimetry. Format: binding. On the technique in general: In ITC the heat of successive injections is recorded.
On to `Nc1nc2c(ncn2[C@@H]2O[C@H](COP(=O)(O)OP(=O)(O)O)[C@@H](O)[C@H]2O)c(=O)[nH]1` [GDP], for which the negative-log Kd (pKd) (in general, the negative decadic logarithm of the Kd, by convention in mol/L) is 8.21. Regarding `Nc1nc2c(ncn2[C@@H]2O[C@H](COP(=O)(O)OP(=O)(O)OP(=O)(O)O)[C@@H](O)[C@H]2O)c(=O)[nH]1` [GTP], the pKd was 8.66. The figure for `Nc1nc2c(ncn2[C@@H]2O[C@H](COP(=O)(O)OP(=O)(O)NP(=O)(O)O)[C@@H](O)[C@H]2O)c(=O)[nH]1` [GppNHp] is 7.66.

Values taken from PMC10746158, “Archaeal GPN-loop GTPases involve a lock-switch-rock mechanism for GTP hydrolysis” (mBio, 2023).
